Laboratory results: PubChem BioAssay AID2605 (Johns Hopkins Ion Channel Center, 2010)

Molecular target: Voltage-gated inwardly rectifying potassium channel KCNH2 (Homo sapiens) (UniProt Q12809)
Experiment: compounds reversing dofetilide inhibition of hERG current – manual patch clamp, HEK293 cells, confirmation (AID 2605)
Settings: dofetilide rescue, at 10 µM, stronger effect = higher value; for potentiation: measured here: hERG potentiation without dofetilide

Sequence of Voltage-gated inwardly rectifying potassium channel KCNH2 (Homo sapiens) (Q12809 whole entry, looked up): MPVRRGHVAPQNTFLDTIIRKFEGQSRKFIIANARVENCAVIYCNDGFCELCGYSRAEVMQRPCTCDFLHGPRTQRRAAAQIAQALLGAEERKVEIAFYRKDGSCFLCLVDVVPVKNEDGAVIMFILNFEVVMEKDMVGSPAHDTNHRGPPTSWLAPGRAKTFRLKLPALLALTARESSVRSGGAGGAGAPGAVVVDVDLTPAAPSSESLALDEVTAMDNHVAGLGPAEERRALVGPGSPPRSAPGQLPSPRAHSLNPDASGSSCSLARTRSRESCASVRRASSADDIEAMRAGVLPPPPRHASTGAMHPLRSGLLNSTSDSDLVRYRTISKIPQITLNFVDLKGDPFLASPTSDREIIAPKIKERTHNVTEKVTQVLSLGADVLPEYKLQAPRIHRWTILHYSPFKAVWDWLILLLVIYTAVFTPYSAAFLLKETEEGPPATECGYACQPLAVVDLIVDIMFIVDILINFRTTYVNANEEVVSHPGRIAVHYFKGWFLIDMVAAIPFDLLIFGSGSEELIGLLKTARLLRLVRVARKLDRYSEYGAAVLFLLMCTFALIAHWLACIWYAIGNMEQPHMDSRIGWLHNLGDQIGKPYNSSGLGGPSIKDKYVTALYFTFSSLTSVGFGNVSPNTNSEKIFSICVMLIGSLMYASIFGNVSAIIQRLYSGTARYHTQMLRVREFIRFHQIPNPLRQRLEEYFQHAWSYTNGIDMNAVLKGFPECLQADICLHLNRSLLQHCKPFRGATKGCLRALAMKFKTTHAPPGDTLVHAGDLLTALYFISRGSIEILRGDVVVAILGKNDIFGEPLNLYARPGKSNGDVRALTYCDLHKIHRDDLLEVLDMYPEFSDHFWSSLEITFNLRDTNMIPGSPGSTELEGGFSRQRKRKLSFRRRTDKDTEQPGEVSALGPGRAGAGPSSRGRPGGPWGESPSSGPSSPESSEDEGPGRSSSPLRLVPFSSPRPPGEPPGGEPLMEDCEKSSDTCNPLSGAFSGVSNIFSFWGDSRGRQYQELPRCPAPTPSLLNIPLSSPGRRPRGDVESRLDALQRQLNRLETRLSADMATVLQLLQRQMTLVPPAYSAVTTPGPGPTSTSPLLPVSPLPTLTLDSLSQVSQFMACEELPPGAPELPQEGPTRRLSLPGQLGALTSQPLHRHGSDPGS

O=C(NC(=S)Nc1ccccc1)c1cc(-c2ccccc2)nc2ccccc12
current remaining with dofetilide: 31%
potentiation: 119%

Cc1cccc(NC(=S)NC(=O)c2cc(-c3ccccc3)nc3ccccc23)c1
current remaining with dofetilide: 32.2%
potentiation: 107%

Cc1ccc(NC(=S)c2nc3ccccc3s2)cc1
current remaining with dofetilide: 23.9%
potentiation: 107%

O=C1C2CC=CCC2C(=O)N1c1ccc(Cc2ccncc2)cc1 (stereo not given)
current remaining with dofetilide: 33.8%
potentiation: 107%

CCC1CCCCN1C(=S)NC(=O)c1cccs1 (stereo not given)
current remaining with dofetilide: 46.5%
potentiation: 140%
